# What was measured:
# [1] = Absorbance spectra of BHQ-1 and BHQ-1-cRGD by spectrophotometry; assay type: physicochemical; conditions: measured in ethanol, 250 nm to 750 nm
# Procedure: To a stirring solution of cyclic RGD (cyclo(Arg-Gly-Asp-D-Phe-Lys) (cRGD), 1.0 mg, 1.66 μmol, 1.0 eq., Peptides International, KY, US) in anhydrous DMF (200 μL) a solution of BHQ-1 N-hydroxysuccinimide (NHS) ester (1.2 mg, 2.0 μmol, 1.2 eq., Biosearch Technologies, CA, US) in anhydrous DMF (200 μL) and […] (1.2 μL, 8.0 μmol, 4.8 eq.) was added sequentially. The resulting reaction solution was stirred for 4 h at room temperature. Purification by high performance liquid chromatography (HPLC) (C18, 10% to 100% of acetonitrile over 10 min, then 100% of acetonitrile until 18 min, 1.0 mL/min) yielded BHQ-1-cRGD (1.5 mg, 1.4 μmol, 82%) as a black solid. The purity of BHQ-1-cRGD was analyzed by performing analytical HPLC (rt=11.0 min, >97%). The identity of the product ([…], MW: 1090.21 g/mol) was verified by electrospray ionization mass spectrometry (ESI(+): m/z (%) 546.70 (100) [M+2H]^2+, 1090.40 (25) [M+H]^+). The absorbance spectra of BHQ-1 and BHQ-1-cRGD were measured in ethanol using spectrophotometry from 250 nm to 750 nm.
# [2] = In vivo optoacoustic imaging (RSOM) of BHQ-1 in mouse footpad; design: species or system mice
# Procedure: For in vivo experiments, 6-8 week old female Hsd: Athymic Nude-Foxn1^nu mice were purchased from Envigo (IN, US). All animal experiments were performed in accordance with institutional guidelines and approved by the IACUC of MSK, and followed NIH guidelines for animal welfare.
# For imaging, a high-resolution raster-scan optoacoustic mesoscopy (RSOM) prototype scanner was used in an epi-illumination mode. The scanner illuminates the tissue with a fast monochromatic nanosecond laser (1 ns, 2 kHz, 1 mJ pulse energy at 532 nm). The laser light was coupled to the sample using a three arm fiber bundle which is combined with the ultrasound detector into a single scan unit. The optoacoustic signals were measured with a 50 MHz spherically focused detector and a bandwidth of 5-80 MHz. Furthermore, the signals were amplified with a 63 dB low noise amplifier and digitized using a fast 12 bit data acquisition card. The scan was performed in a continuous-discrete manner. The usual scan took 1.30 minutes for a field of view of 8×8 mm^2 and the maximum depth was about 2 mm, limited by the penetration depth of 532 nm photons in tissue.
# The raw signals were transformed to the computer on which they were later reconstructed using beam forming. Before reconstruction, the signals were divided into two sub-bands: low frequencies 5-25 MHz and high frequencies 25-80 MHz. These sub-bands were later on separately reconstructed an overlayed using different colors (red=low frequencies, green=high frequencies). For the reconstruction a speed of sound of 1540 m/s has been used and the reconstruction has been performed with voxel sizes of 20×20×5 μm^3. Finally, the Hilbert transform was applied to the reconstructed volume to remove the negative values and the images were further processed using a Wiener and a Median filter to improve the signal to noise ratio. For visualization we took the maximum intensity of the three-dimensional volume.
# All mice were anesthetized using 2% isoflurane. For imaging the quencher dye in vivo, 10 nmol BHQ-1 solution were injected subcutaneously into the footpad of 3 mice. The mouse was then placed in a pre-warmed water bath on a mouse bed keeping the head of the animal above water level. The foot of the mouse was stabilized under water with tape to keep it in a static position for the measurement procedure. The feet were measured before and directly after injection using RSOM as described under 2.3. Quantitative analysis was done in ImageJ by placing a ROI over the injection site of each foot as well as over the background blood vessels in the foot pad.
# [3] = 10 nmol subcutaneous into footpad
smiles,measurement,setting,value
COc1cc(/N=N/c2ccc(C)cc2[N+](=O)[O-])c(C)cc1/N=N/c1ccc(N)cc1 [BHQ-1],absorption spectrum peak,[1],515 nm
same,"optoacoustic signal at the injection site, high frequencies (25-80 MHz)",[2]; [3],55.6±5.7 AU
same,"optoacoustic signal at the injection site, low frequencies (5-25 MHz)",[2]; [3],67.2±3.4 AU
same,"optoacoustic signal at the injection site, overlay image of all detected frequencies","[2]; 10 nmol subcutaneous into footpad, directly after injection",121.6±14.2 AU
same,optoacoustic signal at injection site relative to surrounding footpad vessels,"[2]; overlay of all frequencies, 10 nmol s.c.",~5 times
